For one data set, the system named is MM200. The data set is described as follows: MTT proliferation assay, MM200. As to conditions: Melanoma, MM200, 120 h of exposure. It counts as cell-based. The method, then: (§1) Proliferation Assays. IC50 values were determined for each cell line. Cells were seeded in 96-well plates at an appropriate cell density as determined from growth kinetics analysis and cultured for 5 days in the absence and presence of the test compounds. Cell proliferation was assessed after the addition of 20 μl of 3-4,5 dimethylthiazol-2,5-diphenyl tetrazolium bromide (MTT, 5 mg/ml in PBS, Sigma) for 5 hrs at 37° C. according to manufacturer's instructions. IC50 values were calculated from semi-log plots of % of control proliferation on the y-axis against log dose on the x-axis.
(§2) Anti-proliferative Activity of Isoflavonoid Derivatives. IC50 values were determined for each cell line after 120 h of exposure.

For another data set, the system named is SKBR-3. Nature of the data set: MTT proliferation assay, SKBR-3. Type of data set: cell-based, human. The method, boiled down: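 SK-BR-3 breast adenocarcinoma cells in McCoy's 5a medium were exposed to compounds for 5 days (120 h). Proliferation was read by MTT over 5 hrs at 37° C. IC50 came from semi-log plots of % control proliferation against log dose.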

Another data set has as its system SK-Hep-1. The data set is described as follows: MTT proliferation assay, SK-Hep-1. As to conditions: Homo sapiens, SK-HEP1; Liver, SK-Hep-1, 120 h of exposure. Type of data set: cell-based, human. The method, then:
(§3) The human hepatocellular carcinoma lines HepG2 (HB-8065), SK-HEP-1 (HTB-52) and the normal human lung fibroblast line IMR-90 (CCL-186) were cultured in Minimum Essential Eagles Medium containing 2 mM L-glutamine, 2.2 g/L sodium bicarbonate, supplemented with 1 mM sodium pyruvate and 0.1 mM non-essential amino acids. The human hepatocellular carcinoma line JHH-1 (JCRB1062) was cultured in Williams E Medium (Invitrogen) containing 2.2 g/L sodium bicarbonate, supplemented with 2 mM L-glutamine. The hepatocellular carcinoma line HuH-7 (JCRB0403) was cultured in DMEM, supplemented with 2 mM L-glutamine.
as §1, §2
(Tetrazolium assays rely on reduction of a dye to a coloured formazan, in cell work by metabolically active cells.)

In the next data set the test system is MM2200. The data set is described as follows: MTT proliferation assay, MM2200. Type of data set: cell-based. As to conditions: Table 2, Melanoma, MM2200, 120 hrs of exposure. How it is done:
as §1, §2
Activity data is provided is Table 2.

In another data set the test system is A2058. Nature of the data set: MTT proliferation assay, A2058. Type of data set: cell-based. In short, it runs like this: (§4)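 Growth is compared with untreated wells after 120 h of drug treatment, using MTT (5 hrs, 37° C) as the viability signal; IC50 is interpolated from log dose-response plots.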
The subject of the next data set is PC3. Nature of the data set: MTT proliferation assay, PC3. It counts as cell-based. In short, it runs like this:
as §4

A further data set has as its system HuH-7. The data set is described as follows: MTT proliferation assay, HuH-7. Type of data set: cell-based, human. Conditions: Homo sapiens; Liver, HuH-7, 120 h of exposure. The method, then:
as §3, §1, §2

Another data set relates to A2780. The data set is described as follows: MTT proliferation assay, A2780. It counts as cell-based. In short, it runs like this:
as §4

Another data set has as its system HepG2. The data set is described as follows: MTT proliferation assay, HepG2. Conditions: Homo sapiens; Liver, HepG2, 120 h of exposure. It counts as cell-based, human. How it is done: as §3, §1, §2
Data set [1] is described as follows: Solubility in Captisol solution. It counts as physicochemical. Conditions: 20% Captisol solution, aqueous with cosolvent or surfactant or cyclodextrin, 25° C., read-out: solubility limit. How it is done: (20% Captisol®). Formulation is carried out under aseptic conditions. Sterility is achieved by terminal filtration through a 0.22 micron filter.
In the next data set the test system is 4405. Nature of the data set: MTT proliferation assay, 4405. Conditions: Melanoma, 4405, 120 h of exposure. It counts as cell-based. The method, then:
as §1, §2

The next data set concerns MDA-MB-468. The data set is described as follows: MTT proliferation assay, MDA-MB-468. It counts as cell-based, human. In short, it runs like this: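 MDA-MB-468 breast adenocarcinoma cells were grown in DMEM:F12 with added L-glutamine, then exposed to compound for 5 days (120 h). MTT was added for 5 h at 37 °C. IC50 came from semi-log plots of % control proliferation against log dose.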

The next data set has as its system COLO205. The data set is described as follows: MTT proliferation assay, COLO205. Type of data set: cell-based, human. Conditions: Homo sapiens, COLO 205; CRC, COLO205, 120 h of exposure. How it is done:
The human non-small cell lung adenocarcinoma lines NCI-H1299 (CRL-5803), NCI-H460 (HTB-177), NCI-H358 (CRL-5807), NCI-H838 (CRL-5844), the human colorectal adenocarcinoma lines COLO 205 (CCL-222), HCT-15 (CCL-225) and the human gastric cancer cell line NCI-N87 (CRL-5822) were cultured in RPMI 1640 medium containing 2 g/L sodium bicarbonate (Hyclone/Invitrogen) supplemented with 2 mM L-glutamine (Gibco) 1 mM sodium pyruvate (Sigma), 10 mM HEPES (Sigma) and 4500 mg/L glucose (Sigma). The human non-small cell lung adenocarcinoma line NCI-H2126 (CCL-256) was cultured in DMEM:F12(1:1) (Hyclone/Invitrogen) containing 2.5 mM L-glutamine 2.4 g/L sodium bicarbonate supplemented with 5% fetal bovine serum (FBS), an additional 2 mM L-glutamine, 15 mM HEPES, 0.005 mg/ml insulin (Sigma), 0.01 mg/ml transferrin (Sigma), 30 nM sodium selenite (Sigma), 10 nM hydrocortisone (Sigma) and 10 nM beta-estradiol (Sigma). The human colorectal adenocarcinoma line HT-29 (HTB-38) and the human gastric cancer cell lines OE-19 (#96071721) and MKN1 (JCRB0252) were cultured in RPMI 1640 media supplemented with 2 mM L-glutamine.
as §1, §2

The next data set concerns A549. The data set is described as follows: MTT proliferation assay, A549. Type of data set: cell-based. As to conditions: Homo sapiens; NSCLC, A549, 120 h of exposure. How it is done: as §1, §2

Broadly, the IC50 is the concentration that gives 50% inhibition. Broadly, the solubility is the dissolved amount per volume that the medium holds.

In brackets after ≈: the same amount, converted by molar mass. Where only a bound is given, the exact number is not on record here.

Take `Oc1ccc([C@H]2c3ccc(O)cc3OC[C@H]2c2ccc(O)cc2)cc1` [Compound 31, d-cis-3-(4-hydroxyphenyl)-4-(4-hydroxyphenyl)chroman-7-ol]: the IC50 in the data set on MM200 is 510 to 1500 nM; in the data set with SKBR-3 (Homo sapiens, SK-BR-3, 120 h, Breast, SKBR-3, 120 h of exposure), not above 150 nM; in the data set with SKBR-3 (Table 2, Breast, SKBR-3, 120 hrs of exposure), not above 150 nM; in the data set on SK-Hep-1, 150 to 500 nM; with MM2200 it was 510 to 1500 nM; with A2058 (Homo sapiens, A2058, 120 h, Melanoma, A2058, 120 h of exposure) it was not above 150 nM. Moreover, the IC50 with A2058 (Table 2, Melanoma, A2058, 120 hrs of exposure) was not above 150 nM; with PC3 (Homo sapiens, PC-3, 120 h, Prostate, PC3, 120 h of exposure), 150 to 500 nM; with PC3 (Table 2, Prostate, PC3, 120 hrs of exposure) it was 150 to 500 nM; in the data set on HuH-7, 150 to 500 nM; in the data set on A2780 (Homo sapiens, A2780, 120 h, Ovarian, A2780, 120 h of exposure), 150 to 500 nM; with A2780 (Table 2, Ovarian, A2780, 120 hrs of exposure), 150 to 500 nM. Also, the IC50 in the data set with HepG2 was 150 to 500 nM; in the data set with 4405, 150 to 500 nM; in the data set with MDA-MB-468 (Homo sapiens, MDA-MB-468, 120 h, Breast, MDA-MB-468, 120 h of exposure) it was not above 150 nM; in the data set with MDA-MB-468 (Table 2, Breast, MDA-MB-468, 120 hrs of exposure) it was not above 150 nM; in the data set on COLO205, 1600 to 10000 nM; in the data set on A549, 510 to 1500 nM. Moreover, the “anti-proliferative activity against various cancer cells compared with racemic (compound 32) and l-form (compound 33)” value with A2780 (120 hrs of exposure, various cancer cells (Table 2)) is recorded as “superior anti-proliferative activity”. Besides, in [1], the solubility is 27.9 mg/mL (≈ 83.4 mM).
